Results as given in ChEMBL document CHEMBL1129151, “Stereoselective synthesis of lewis-associated trisaccharides as E-selectin inhibitors” (Bioorg Med Chem Lett, 1996).

Tests used:
[1] = molecular target: T1, E-selectin (Homo sapiens, UniProt P16581); experiment: In vitro ability to inhibit the adhesion of HL-60 cells to purified recombinant human Selectin E; type: cell-based
T1 sequence (P16581 whole entry): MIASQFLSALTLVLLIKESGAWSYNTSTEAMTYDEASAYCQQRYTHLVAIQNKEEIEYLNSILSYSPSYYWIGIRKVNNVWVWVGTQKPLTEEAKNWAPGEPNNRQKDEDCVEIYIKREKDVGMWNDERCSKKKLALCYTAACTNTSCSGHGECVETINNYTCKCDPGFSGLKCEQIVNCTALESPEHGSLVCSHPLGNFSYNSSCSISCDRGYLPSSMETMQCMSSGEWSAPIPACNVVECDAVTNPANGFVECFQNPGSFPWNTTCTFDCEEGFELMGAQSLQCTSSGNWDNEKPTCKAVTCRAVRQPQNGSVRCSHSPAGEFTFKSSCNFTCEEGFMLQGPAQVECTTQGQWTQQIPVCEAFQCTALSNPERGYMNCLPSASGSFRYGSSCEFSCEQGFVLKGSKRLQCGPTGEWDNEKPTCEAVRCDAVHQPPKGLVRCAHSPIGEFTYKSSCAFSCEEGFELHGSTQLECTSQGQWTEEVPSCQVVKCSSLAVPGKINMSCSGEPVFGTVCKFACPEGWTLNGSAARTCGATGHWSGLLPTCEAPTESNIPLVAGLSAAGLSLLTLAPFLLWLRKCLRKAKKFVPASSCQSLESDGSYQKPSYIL

[2] = system: Mus musculus; experiment: In vivo ability to inhibit lipoteichoic acid (LTA)-induced neutrophil accumulation in murine pleurisy model at a dose of 30 mg/kg upon iv administration; type: functional; conditions: for inhibition in vivo at 30 mg/kg: Mus musculus, iv; for Inhibition: 30 mg/kg

Compound | IC50 [1] | inhibition in vivo at 30 mg/kg [2] | Inhibition [2]
CCO[C@@H]1O[C@@H](CO)[C@@H](O[C@@H]2O[C@@H](CO)[C@H](O)C(O)[C@@H]2O)C(O[C@@H]2O[C@@H](C)[C@@H](O)[C@H](O)[C@@H]2O)[C@@H]1NC(C)=O (single isomer, unassigned) | > 6.6 mM | 31% | 
CCO[C@@H]1O[C@@H](CO)[C@@H](O[C@@H]2O[C@H](C)[C@H](O)[C@H](O)[C@@H]2O)[C@H](O[C@@H]2O[C@@H](CO)[C@H](O)[C@H](O)[C@@H]2O)[C@@H]1NC(C)=O (stereo in doubt; 1) | > 6.6 mM |  | 37%
CCO[C@@H]1O[C@@H](CO)[C@@H](O[C@@H]2O[C@@H](C)[C@H](O)[C@H](O)[C@@H]2O)[C@H](O[C@@H]2O[C@@H](CO)[C@H](O)[C@H](O)[C@@H]2O)[C@@H]1NC(=O)c1ccc2ccccc2c1 (stereo in doubt; 2) | > 6.6 mM | 49% | 

Further lines, with some results ahead:

IC50 [1] | Compound | inhibition in vivo at 30 mg/kg [2] | Inhibition [2]
> 6.6 mM | CCO[C@@H]1O[C@@H](CO)[C@@H](O[C@@H]2O[C@@H](CO)[C@H](O)C(O)[C@@H]2O)C(O[C@@H]2O[C@@H](C)[C@@H](O)[C@H](O)[C@@H]2O)[C@@H]1NC(=O)c1ccc2ccccc2c1 (single isomer, unassigned) | 3% | 
1.4 mM | CCO[C@@H]1O[C@@H](CO)[C@@H](O[C@@H]2O[C@H](C)[C@H](O)[C@H](O)[C@@H]2O)[C@H](O[C@@H]2O[C@@H](CO)[C@H](O)[C@H](O)[C@@H]2O)[C@@H]1NC(C)=O (stereo in doubt; 3) | 51% | 
2 mM | CCO[C@@H]1O[C@@H](CO)[C@@H](O[C@@H]2O[C@@H](C)[C@H](O)[C@H](O)[C@@H]2O)[C@H](O[C@@H]2O[C@@H](CO)[C@H](O)[C@H](O)[C@@H]2O)[C@@H]1NC(=O)c1ccc2ccccc2c1 (stereo in doubt; 4) |  | 62%
